Source: US10221139B2, “Inhibitors of histone demethylases” (Gilead Sciences, Inc., priority 2012, dated 2019)

Assays:
[1] = molecular target: T1, UTX (KDM6A) (Homo sapiens, UniProt O15550); assay: Histone lysine demethylase AlphaLISA assay, UTX; assay type: biochemical; conditions: substrate BK27M3
T1 construct: 919-1401; host or cells: E. coli
Outline: (§1)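 IC50 values come from an AlphaLISA signal: acceptor beads incubated 60 min in the dark, then streptavidin donor beads, both at room temperature. Beforehand, enzyme and compound were preincubated 10 min and the substrate reaction ran at room temperature.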

[2] = molecular target: T2, JMJD2B (KDM4B) (Homo sapiens, UniProt O94953); assay: Histone lysine demethylase AlphaLISA assay, JMJD2B; assay type: biochemical; conditions: substrate BK9M3, read-out: JMUD2B IC50
T2 construct: 2-500; purchased BPS; host or cells: Bac (baculovirus)
T2 sequence (O94953 2-500): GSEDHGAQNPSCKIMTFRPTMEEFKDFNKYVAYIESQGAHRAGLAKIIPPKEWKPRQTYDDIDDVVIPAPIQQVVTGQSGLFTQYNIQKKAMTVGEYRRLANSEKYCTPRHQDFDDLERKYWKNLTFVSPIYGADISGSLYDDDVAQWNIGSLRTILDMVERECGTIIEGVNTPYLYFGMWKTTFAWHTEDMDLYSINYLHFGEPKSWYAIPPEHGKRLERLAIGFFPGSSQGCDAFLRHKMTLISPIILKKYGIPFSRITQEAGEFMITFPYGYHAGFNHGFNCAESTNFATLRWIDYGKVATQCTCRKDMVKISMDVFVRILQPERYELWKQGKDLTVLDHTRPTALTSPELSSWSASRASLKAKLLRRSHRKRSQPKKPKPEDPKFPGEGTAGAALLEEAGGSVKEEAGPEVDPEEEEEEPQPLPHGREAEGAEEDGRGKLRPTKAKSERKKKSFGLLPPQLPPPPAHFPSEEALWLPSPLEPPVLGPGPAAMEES
Method: (§2) Example 2: Histone Lysine Demethylase AlphaLISA Assays for IC50 Value Determination
(§3) Assays are performed analogously to the protocol described by Perkin Elmer (Roy et al. Perkin Elmer Technical Note: AlphaLISA #12, April 2011).
(§4) Enzymes are dissolved in enzyme buffer and incubated for 10 min before 5 μL is added to 5 μL 3% DMSO solutions of compounds in enzyme buffer. Incubated for another 10 minutes, before 5 μL substrate solution is added and the reaction mixture is incubated at room temperature for the given period. 10 μL acceptor beads, suspended at given dilutions in Epigenetic Buffer (Perkin Elmer AL008) from stock, are added and the suspension is incubated 60 minutes in the dark at room temperature, before 10 μL suspension (at the given dilutions in Epigenetic Buffer) of streptavidin donor beads (Perkin Elmer 6760002) in Epigenetic Buffer is added. After incubation at room temperature in the dark the plates are read. Reaction conditions are seen in Table 2b.

[3] = molecular target: T3, JMJD3 (KDM6B) (Homo sapiens, UniProt O15054); assay: Histone lysine demethylase AlphaLISA assay, JMJD3; assay type: biochemical; conditions: substrate BK27M3
T3 construct: 1043-end; purchased BPS; host or cells: Bac (baculovirus)
Method: as §2, §3, §4

[4] = molecular target: T4, PHF8 (KDM7) (Homo sapiens, UniProt Q9UPP1); assay: Histone lysine demethylase AlphaLISA assay, PHF8; assay type: biochemical; conditions: substrate BK9M2
T4 construct: KDM7 (PHF8); BRIC; 1-1322; Bac
Method: as §2, §3, §4

[5] = molecular target: T5, FBXL10 (KDM2B) (Homo sapiens, UniProt Q8NHM5); assay: Histone lysine demethylase AlphaLISA assay, FBXL10; assay type: biochemical; conditions: substrate BH3K36M2
T5 construct: 1-650; purchased BPS, Bioscience, US; host or cells: Bac (baculovirus)
T5 sequence (Q8NHM5 1-650): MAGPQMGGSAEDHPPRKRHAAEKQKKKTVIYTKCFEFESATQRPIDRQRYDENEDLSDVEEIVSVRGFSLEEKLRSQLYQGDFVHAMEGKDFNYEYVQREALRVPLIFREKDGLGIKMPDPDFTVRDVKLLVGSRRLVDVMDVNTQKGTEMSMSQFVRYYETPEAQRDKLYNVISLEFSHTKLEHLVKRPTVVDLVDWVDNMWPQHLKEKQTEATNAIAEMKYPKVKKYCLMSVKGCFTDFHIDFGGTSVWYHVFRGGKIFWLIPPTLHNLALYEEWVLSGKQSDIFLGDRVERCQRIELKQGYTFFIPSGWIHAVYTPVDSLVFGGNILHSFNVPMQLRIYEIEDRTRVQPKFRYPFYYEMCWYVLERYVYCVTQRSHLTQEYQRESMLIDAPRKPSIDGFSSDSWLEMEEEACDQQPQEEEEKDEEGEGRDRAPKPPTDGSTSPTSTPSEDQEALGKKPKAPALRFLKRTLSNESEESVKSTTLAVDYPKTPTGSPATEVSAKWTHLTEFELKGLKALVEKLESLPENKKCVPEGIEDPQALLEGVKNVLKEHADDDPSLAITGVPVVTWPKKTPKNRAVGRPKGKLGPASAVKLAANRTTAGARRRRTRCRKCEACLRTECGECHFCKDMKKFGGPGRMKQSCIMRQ
Method: as §2, §3, §4

[6] = molecular target: T6, GASC1 (KDM4C, JMJD2C) (Homo sapiens, UniProt Q9H3R0); assay: Histone lysine demethylase AlphaLISA assay, GASC1; assay type: biochemical; conditions: substrate BK9M3
T6 construct: 1-349; host or cells: E. coli
T6 sequence (Q9H3R0 1-349): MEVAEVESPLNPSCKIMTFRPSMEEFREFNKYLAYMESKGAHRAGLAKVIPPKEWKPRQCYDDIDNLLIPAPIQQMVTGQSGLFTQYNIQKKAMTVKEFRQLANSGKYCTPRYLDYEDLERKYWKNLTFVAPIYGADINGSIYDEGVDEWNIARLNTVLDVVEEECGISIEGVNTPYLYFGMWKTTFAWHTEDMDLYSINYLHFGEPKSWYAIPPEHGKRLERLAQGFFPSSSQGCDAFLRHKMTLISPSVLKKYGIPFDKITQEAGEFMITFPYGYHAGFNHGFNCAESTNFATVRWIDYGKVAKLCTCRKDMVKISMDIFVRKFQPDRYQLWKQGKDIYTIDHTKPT
Outline: as §1

[7] = molecular target: T7, JMJD1B (KDM3B) (Homo sapiens, UniProt Q7LBC6); assay: Histone lysine demethylase AlphaLISA assay, JMJD1B; assay type: biochemical; conditions: substrate BK9M2
T7 construct: 842-1761; host or cells: Bac (baculovirus)
T7 sequence (Q7LBC6 842-1761): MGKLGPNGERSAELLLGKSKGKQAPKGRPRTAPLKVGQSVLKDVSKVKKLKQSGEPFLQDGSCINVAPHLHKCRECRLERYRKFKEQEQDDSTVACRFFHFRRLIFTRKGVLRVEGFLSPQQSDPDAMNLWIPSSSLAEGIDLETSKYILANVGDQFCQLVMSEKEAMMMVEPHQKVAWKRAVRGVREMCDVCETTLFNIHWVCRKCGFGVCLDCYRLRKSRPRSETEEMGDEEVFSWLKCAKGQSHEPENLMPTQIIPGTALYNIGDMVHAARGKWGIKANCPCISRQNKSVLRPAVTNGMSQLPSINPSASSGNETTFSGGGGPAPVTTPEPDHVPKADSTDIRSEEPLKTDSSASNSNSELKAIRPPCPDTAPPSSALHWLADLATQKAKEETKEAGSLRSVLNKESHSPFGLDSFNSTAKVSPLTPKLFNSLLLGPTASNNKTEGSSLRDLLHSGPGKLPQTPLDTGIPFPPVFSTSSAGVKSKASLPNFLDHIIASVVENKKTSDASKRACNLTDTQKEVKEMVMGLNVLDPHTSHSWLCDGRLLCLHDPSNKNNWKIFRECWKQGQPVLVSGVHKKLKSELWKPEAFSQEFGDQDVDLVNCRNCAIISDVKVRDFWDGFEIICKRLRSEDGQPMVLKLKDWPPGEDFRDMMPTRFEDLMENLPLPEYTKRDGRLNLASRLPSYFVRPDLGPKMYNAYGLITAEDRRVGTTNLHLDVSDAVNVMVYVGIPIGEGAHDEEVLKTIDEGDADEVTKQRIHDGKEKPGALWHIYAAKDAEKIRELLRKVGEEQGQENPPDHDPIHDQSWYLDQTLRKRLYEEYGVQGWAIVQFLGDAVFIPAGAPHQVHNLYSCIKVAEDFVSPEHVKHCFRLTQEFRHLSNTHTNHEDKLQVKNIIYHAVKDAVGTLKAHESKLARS
Method: as §2, §3, §4

[8] = molecular target: T8, JMJD2A (KDM4A) (Homo sapiens, UniProt O75164); assay: Histone lysine demethylase AlphaLISA assay, JMJD2A; assay type: biochemical; conditions: substrate BK9M3
T8 construct: 1-350; purchased BPS, Bioscience, US; host or cells: E. coli
T8 sequence (O75164 1-350): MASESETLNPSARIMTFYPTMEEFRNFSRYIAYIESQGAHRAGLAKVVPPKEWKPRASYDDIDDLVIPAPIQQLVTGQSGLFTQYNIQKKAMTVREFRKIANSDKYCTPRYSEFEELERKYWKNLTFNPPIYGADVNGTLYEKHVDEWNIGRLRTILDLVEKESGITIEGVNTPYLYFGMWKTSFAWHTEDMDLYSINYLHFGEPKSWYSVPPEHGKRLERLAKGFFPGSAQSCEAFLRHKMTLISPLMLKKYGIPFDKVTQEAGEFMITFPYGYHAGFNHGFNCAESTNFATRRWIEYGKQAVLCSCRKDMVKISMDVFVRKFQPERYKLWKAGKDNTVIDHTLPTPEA
Method: as §2, §3, §4

[9] = molecular target: T9, JARID1C (KDM5C) (Homo sapiens, UniProt P41229); assay: Histone lysine demethylase AlphaLISA assay, JARID1C; assay type: biochemical; conditions: substrate H3K4M3B
T9 construct: 2-1560; purchased BPS; host or cells: Bac (baculovirus)
Method: as §2, §3, §4

[10] = molecular target: T10, JMJD2A (KDM4A) (Homo sapiens, UniProt O75164); assay: Immunofluorescence assay in U2OS cells transfected with pCMVHA JMJD2A (H3K9me3 mark); assay type: cell-based; conditions: 20 hours
T10 construct: Full length; host or cells: U2OS
T10 sequence (O75164 1-1064): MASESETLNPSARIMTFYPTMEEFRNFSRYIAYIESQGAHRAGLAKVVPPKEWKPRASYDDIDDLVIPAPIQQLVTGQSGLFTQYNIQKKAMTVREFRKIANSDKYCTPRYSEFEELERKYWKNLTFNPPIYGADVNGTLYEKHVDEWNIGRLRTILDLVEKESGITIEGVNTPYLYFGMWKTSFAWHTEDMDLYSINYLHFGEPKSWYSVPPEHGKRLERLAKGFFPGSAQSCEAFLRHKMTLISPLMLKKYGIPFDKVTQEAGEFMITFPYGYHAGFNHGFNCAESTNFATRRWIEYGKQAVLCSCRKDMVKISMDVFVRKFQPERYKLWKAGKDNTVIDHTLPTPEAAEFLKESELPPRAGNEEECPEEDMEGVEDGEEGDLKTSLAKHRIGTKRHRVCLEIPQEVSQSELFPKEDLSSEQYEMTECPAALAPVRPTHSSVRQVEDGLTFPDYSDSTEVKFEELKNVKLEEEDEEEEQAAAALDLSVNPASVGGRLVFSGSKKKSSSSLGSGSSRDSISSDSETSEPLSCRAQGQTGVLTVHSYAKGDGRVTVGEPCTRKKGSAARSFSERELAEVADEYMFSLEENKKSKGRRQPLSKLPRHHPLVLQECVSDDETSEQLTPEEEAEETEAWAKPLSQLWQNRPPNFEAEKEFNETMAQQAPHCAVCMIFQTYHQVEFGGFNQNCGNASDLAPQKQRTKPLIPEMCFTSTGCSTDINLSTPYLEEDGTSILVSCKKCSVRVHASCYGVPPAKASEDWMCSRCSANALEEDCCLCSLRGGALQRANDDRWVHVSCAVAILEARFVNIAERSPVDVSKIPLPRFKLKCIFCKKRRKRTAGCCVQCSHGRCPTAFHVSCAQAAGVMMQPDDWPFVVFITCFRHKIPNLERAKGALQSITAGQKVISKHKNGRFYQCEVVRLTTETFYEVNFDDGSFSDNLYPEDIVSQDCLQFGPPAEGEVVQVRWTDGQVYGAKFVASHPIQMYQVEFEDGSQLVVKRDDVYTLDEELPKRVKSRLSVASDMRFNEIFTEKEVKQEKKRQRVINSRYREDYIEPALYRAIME
Method: U2OS cells were seeded 24 hours before transfection. Transfection was performed with Fugene HD transfection reagent as recommended by the manufacturer. 6 hours after transfection, the cells were harvested and seeded into multi well plates into media containing compound. The media used was DMEM containing 5% FBS and pen/strep. 20 hours after incubation of cells with compounds, the cells were washed once in PBS, harvested by fixation with formaldehyde 4% aqueous solution, and washed 2 times in PBS. Subsequently, the cells were permeabilized in PBS with 0.2% Triton X-100 for 10 min at room temperature. Blocking was performed in PBS with 0.2% Triton X-100 and 5% FBS for 45 min at room temperature. The cells were incubated with primary antibodies diluted 1 μg/ml in blocking solution over night at 4° C. The primary antibodies used in the assays were HA.11 (Covance, MMS-101P) and the antibody detecting the mark specified in the Table 6 below. After incubation with primary antibodies, the cells were washed 3 times with PBS, incubated with secondary antibodies diluted 1:1000 (Alexa fluor 594 goat anti rabbit IgG, Invitrogen, A11012; Alexa flour 488 donkey anti mouse IgG, Invitrogen, A21202) and Hoechst, 20 μg/ml (Sigma, 33342) in blocking solution, and washed again 3 times with PBS. Finally, PBS was added and high throughput imaging and analysis were performed by an IN Cell Analyzer 1000 (GE Healthcare). The robot software analyzed individual cells and divided these into HA^+ (transfected cells) and HA^− (non-transfected cells). The IC50 values in Table 7 below were based on an average measure of the staining of the mark specified in the Table 6 below in the transfected cells.

T4 sequence (Q9UPP1 37-477 limits assumed): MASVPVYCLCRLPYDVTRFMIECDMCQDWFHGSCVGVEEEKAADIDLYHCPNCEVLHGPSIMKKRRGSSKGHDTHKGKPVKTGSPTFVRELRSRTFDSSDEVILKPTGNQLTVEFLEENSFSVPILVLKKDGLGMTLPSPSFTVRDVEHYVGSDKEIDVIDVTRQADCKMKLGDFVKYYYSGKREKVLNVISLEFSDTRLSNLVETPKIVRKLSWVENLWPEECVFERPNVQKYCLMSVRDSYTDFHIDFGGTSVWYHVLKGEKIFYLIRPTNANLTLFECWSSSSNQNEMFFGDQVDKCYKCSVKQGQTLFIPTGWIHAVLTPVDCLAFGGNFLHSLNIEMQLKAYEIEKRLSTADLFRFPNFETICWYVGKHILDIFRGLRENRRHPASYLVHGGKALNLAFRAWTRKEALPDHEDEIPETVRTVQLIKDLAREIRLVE
T9 sequence (P41229 2-1560): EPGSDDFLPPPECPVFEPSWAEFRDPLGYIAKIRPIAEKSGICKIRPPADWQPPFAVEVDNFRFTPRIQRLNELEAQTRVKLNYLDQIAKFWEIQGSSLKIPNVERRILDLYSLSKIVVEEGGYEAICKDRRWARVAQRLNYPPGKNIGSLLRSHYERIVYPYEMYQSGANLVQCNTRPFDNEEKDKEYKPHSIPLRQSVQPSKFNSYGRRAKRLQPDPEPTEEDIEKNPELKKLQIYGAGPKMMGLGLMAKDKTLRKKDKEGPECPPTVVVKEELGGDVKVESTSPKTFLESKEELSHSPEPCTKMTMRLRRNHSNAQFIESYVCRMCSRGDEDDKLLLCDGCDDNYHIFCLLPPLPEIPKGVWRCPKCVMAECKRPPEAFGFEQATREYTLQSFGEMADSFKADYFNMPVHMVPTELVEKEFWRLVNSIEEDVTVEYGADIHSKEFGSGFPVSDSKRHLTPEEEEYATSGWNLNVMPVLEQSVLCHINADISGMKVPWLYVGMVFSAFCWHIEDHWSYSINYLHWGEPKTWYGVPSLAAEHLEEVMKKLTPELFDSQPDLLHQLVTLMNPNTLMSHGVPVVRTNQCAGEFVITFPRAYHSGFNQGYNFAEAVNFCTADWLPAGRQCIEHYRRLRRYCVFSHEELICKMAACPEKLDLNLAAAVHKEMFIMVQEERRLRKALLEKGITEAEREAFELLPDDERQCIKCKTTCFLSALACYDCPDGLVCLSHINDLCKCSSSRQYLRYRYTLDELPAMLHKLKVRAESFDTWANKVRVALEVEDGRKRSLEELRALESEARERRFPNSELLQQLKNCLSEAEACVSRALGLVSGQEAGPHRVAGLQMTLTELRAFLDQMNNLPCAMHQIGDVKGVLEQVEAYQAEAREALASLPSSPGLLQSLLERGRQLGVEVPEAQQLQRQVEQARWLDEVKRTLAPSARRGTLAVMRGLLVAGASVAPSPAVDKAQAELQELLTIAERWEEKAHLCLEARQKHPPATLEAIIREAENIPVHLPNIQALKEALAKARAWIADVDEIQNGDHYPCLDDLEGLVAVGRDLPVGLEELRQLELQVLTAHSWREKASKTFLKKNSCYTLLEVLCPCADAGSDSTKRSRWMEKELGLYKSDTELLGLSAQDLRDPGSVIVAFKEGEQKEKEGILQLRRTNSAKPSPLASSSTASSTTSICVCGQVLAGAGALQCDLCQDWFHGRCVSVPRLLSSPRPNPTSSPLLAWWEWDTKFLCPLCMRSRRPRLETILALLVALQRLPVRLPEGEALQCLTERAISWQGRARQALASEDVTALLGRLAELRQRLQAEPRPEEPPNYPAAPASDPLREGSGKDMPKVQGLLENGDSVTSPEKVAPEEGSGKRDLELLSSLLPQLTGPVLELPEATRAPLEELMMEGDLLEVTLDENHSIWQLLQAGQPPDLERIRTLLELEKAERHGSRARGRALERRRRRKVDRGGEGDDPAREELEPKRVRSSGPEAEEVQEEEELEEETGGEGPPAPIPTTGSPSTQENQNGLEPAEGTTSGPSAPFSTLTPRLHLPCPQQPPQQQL
T3 sequence (O15054 1043-1682 isoform O15054-1 limits assumed): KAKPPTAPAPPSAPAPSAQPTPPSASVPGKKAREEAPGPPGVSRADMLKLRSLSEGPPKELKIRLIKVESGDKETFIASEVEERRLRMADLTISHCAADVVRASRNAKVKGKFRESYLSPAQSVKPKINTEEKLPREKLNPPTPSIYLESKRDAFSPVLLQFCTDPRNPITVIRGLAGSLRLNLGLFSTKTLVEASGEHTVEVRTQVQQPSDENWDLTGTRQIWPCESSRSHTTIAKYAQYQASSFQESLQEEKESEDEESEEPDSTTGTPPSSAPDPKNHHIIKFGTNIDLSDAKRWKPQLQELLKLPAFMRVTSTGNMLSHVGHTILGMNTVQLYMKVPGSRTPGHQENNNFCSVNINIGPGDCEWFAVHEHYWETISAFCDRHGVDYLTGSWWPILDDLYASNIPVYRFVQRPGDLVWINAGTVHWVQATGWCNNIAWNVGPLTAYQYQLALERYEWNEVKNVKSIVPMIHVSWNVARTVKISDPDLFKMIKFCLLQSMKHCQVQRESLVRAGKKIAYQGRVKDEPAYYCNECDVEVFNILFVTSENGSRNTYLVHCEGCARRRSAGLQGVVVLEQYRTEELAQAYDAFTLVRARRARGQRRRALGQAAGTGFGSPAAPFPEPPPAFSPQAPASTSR
T1 sequence (O15550 919-1401): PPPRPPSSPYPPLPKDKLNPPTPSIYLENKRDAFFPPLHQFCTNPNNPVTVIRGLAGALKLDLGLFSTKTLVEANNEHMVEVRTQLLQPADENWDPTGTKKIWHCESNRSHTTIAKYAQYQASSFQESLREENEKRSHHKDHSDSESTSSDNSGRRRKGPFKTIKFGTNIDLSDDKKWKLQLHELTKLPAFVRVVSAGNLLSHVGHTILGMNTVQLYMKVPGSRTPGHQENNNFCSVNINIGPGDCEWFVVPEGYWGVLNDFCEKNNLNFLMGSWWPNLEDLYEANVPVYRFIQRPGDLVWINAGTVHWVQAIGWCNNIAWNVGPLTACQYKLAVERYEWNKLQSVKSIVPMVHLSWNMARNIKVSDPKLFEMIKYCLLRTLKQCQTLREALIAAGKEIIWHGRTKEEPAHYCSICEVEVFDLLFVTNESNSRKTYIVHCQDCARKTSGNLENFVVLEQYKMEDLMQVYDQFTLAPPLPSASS

| Structure (SMILES) | IC50 [1] [nM] | IC50 [2] [nM] | IC50 [3] [nM] | IC50 [4] [nM] | IC50 [5] [nM] | IC50 [6] [nM] | IC50 [7] [nM] | IC50 [8] [nM] | IC50 [9] [nM] | IC50 [10] [nM] |
| --- | --- | --- | --- | --- | --- | --- | --- | --- | --- | --- |
| O=C(O)c1ccnc(CN[C@@H]2CCN(CCCc3ccccc3)C2)c1 [#28, 2-({[(3R)-1-(3-phenylpropyl)pyrrolidin-3-yl]amino}methyl)pyridine-4-carboxylic acid] | ≥ 1000 | 100 to 1000 | ≥ 1000 | ≥ 1000 | ≥ 1000 | ≥ 1000 | ≥ 1000 | 100 to 1000 | – | – |
| CN(CCCCN(Cc1ccccc1)C1CC1)C(=O)CNCc1cc(C(=O)O)ccn1 [#44, 2-({[({4-[benzyl(cyclopropyl)amino]butyl}(methyl)carbamoyl)methyl]amino}methyl)pyridine-4-carboxylic acid] | – | < 100 | – | 100 to 1000 | < 100 | < 100 | ≥ 1000 | < 100 | < 100 | – |
| CSCCNCc1cc(C(=O)O)ccn1 [drawing 304, 2-({[2-(methylsulfanyl)ethyl]amino}methyl)pyridine-4-carboxylic acid] | – | – | – | – | – | – | – | – | – | 1000 to 50000 |
